# Results as given in publication PMC11620503 (Antimicrobial Agents and Chemotherapy, 2024).
# Several values for one entry are separate records, joined by “and”; a condition that tells them apart may be missing. Equal values may be shown once. Read-outs that look alike come from different tables or passages of the source.
# How the values were obtained:
# Test in all cases: MIC, broth microdilution
# [1] = test system: MEM-nonsusceptible Enterobacterales with metallo-carbapenemases; format: cell-based; details: MEM-nonsusceptible Enterobacterales with metallo-carbapenemases (55), cefiderocol 54 isolates; for MIC50 / MIC90: fixed concentration (μg/mL) in label
# [2] = test system: 207 Enterobacterales including carbapenem-resistant isolates; format: cell-based
# [3] = test system: MBL-producing isolates (Enterobacterales); format: cell-based
# 96 P. aeruginosa = format: cell-based, Pseudomonas aeruginosa; details: Pseudomonas aeruginosa (96)
# [4] = test system: 55 isolates of A. baumannii; format: cell-based, Acinetobacter baumannii; details: Acinetobacter baumannii (55); for MIC50 / MIC90: fixed concentration (μg/mL) in label
# [5] = test system: MEM-, imipenem/relebactam-, and ceftolozane/tazobactam-nonsusceptible P. aeruginosa; format: cell-based, Pseudomonas aeruginosa; details: for CLSI MIC interpretation (%) I: intermediate (including susceptible dose-dependent); for CLSI MIC interpretation (%) R: resistant
# [6] = test system: MEM-nonsusceptible Enterobacterales with serine-carbapenemases; format: cell-based; details: MEM-nonsusceptible Enterobacterales with serine-carbapenemases (58); for MIC50 / MIC90: fixed concentration (μg/mL) in label
# [7] = test system: serine-carbapenemase-producing isolates (Enterobacterales); format: cell-based; details: Enterobacterales with serine-carbapenemases (80); for MIC50 / MIC90: fixed concentration (μg/mL) in label
# [8] = test system: MEM-nonsusceptible Enterobacterales; format: cell-based; details: MEM-nonsusceptible Enterobacterales (127), cefiderocol 126 isolates; for MIC50 / MIC90: fixed concentration (μg/mL) in label
# [9] = CLSI breakpoints, marked c: breakpoints for β-lactam alone, tigecycline: FDA breakpoints
# [10] = All Enterobacterales (207), cefiderocol 205 isolates, CLSI breakpoints, marked c: breakpoints for β-lactam alone, tigecycline: FDA breakpoints
# [11] = All Enterobacterales (207), cefiderocol 205 isolates, fixed concentration (μg/mL) in label
# [12] = Enterobacterales with metallo-carbapenemases (74), cefiderocol 73 isolates, CLSI breakpoints, marked c: breakpoints for β-lactam alone, tigecycline: FDA breakpoints
# [13] = Enterobacterales with metallo-carbapenemases (74), cefiderocol 73 isolates, fixed concentration (μg/mL) in label
# [14] = CLSI breakpoints, marked c: breakpoints for β-lactam alone
# [15] = fixed concentration (μg/mL) in label
# [16] = CLSI breakpoints, last subgroup of Table 2
# [17] = MEM-nonsusceptible Pseudomonas aeruginosa (76), CLSI breakpoints, marked c: breakpoints for β-lactam alone
# [18] = MEM-nonsusceptible Pseudomonas aeruginosa (76), fixed concentration (μg/mL) in label
# [19] = Enterobacterales with metallo-carbapenemases (74), cefiderocol 73 isolates, fixed concentration (μg/mL) in label, read-out: MIC90
# [20] = fixed concentration (μg/mL) in label, read-out: MIC50
# [21] = fixed concentration (μg/mL) in label, read-out: MIC90
# [22] = Imipenem/relebactam-nonsusceptible Pseudomonas aeruginosa (43), CLSI breakpoints, marked c: breakpoints for β-lactam alone
# [23] = Pseudomonas aeruginosa, Imipenem/relebactam-nonsusceptible Pseudomonas aeruginosa (43), fixed concentration (μg/mL) in label, read-out: MIC50
# [24] = Pseudomonas aeruginosa, Imipenem/relebactam-nonsusceptible Pseudomonas aeruginosa (43), fixed concentration (μg/mL) in label, read-out: MIC90
# [25] = Pseudomonas aeruginosa, MEM-nonsusceptible Pseudomonas aeruginosa (76), fixed concentration (μg/mL) in label, read-out: MIC50
# [26] = Pseudomonas aeruginosa, MEM-nonsusceptible Pseudomonas aeruginosa (76), fixed concentration (μg/mL) in label, read-out: MIC90
# [27] = Pseudomonas aeruginosa, Table 2, broth microdilution, read-out: MIC50
# [28] = Pseudomonas aeruginosa, Table 2, broth microdilution, read-out: MIC90
compound,measurement,setting,value
colistin,CLSI MIC interpretation R (resistant),[1]; [9],14.5%
same,MIC50,[1],0.5 µg/mL
same,MIC90,[1],8 µg/mL
same,CLSI MIC interpretation I (intermediate),[2]; [10],78.3%
same,CLSI MIC interpretation R (resistant),[2]; [10],21.7%
same,MIC50,[2]; [11],0.5 µg/mL
same,MIC90,[2]; [11],>64 µg/mL
same,CLSI MIC interpretation I (intermediate),[3]; [12],89.2%
same,CLSI MIC interpretation R (resistant),[3]; [12],10.8%
same,MIC50,[3]; [13],0.5 µg/mL
same,MIC90,[3]; [13],4 µg/mL
same,MIC90,"[3]; MBL-producing isolates, comparators",≤ 4 µg/mL
same,CLSI MIC interpretation I (intermediate),96 P. aeruginosa; [14],100%
same,CLSI MIC interpretation R (resistant),96 P. aeruginosa; [14],0%
same,MIC50,96 P. aeruginosa; [15],1 µg/mL
same,MIC90,96 P. aeruginosa; [15],1 µg/mL
same,MIC Range,96 P. aeruginosa; [15],0.25 to 2 µg/mL
same,CLSI MIC interpretation I (intermediate),[4]; [14],94.5%
same,CLSI MIC interpretation R (resistant),[4]; [14],5.5%
same,MIC50,[4],1 µg/mL
same,MIC90,[4],2 µg/mL
same,CLSI MIC interpretation I (intermediate),[5],100%
same,CLSI MIC interpretation R (resistant),[5],0%
same,MIC50,[5],1 µg/mL
same,MIC90,[5],1 µg/mL
same,MIC Range,[5],0.5 to 2 µg/mL and 0.25 to 2 µg/mL
same,CLSI MIC interpretation (%) I,[5]; [16],100%
same,CLSI MIC interpretation I (intermediate),[5]; [17],100%
same,CLSI MIC interpretation R (resistant),[5]; [17],0%
same,MIC50,[5]; [18],1 µg/mL
same,MIC90,[5]; [18],1 µg/mL
same,MIC Range,[5]; [18],0.25 to 2 µg/mL
same,CLSI MIC interpretation (%) R,[5]; [16],0%
same,MIC50,"[5]; Table 2, broth microdilution",1 µg/mL
same,MIC90,"[5]; Table 2, broth microdilution",1 µg/mL
same,CLSI MIC interpretation I (intermediate),[6]; [9],74.1%
same,CLSI MIC interpretation R (resistant),[6]; [9],25.9%
same,MIC50,[6],0.5 µg/mL
same,MIC90,[6],>64 µg/mL
same,MIC50,[7],0.5 µg/mL
same,MIC90,[7],>64 µg/mL
same,CLSI MIC interpretation I (intermediate),[8]; [9],77.2%
same,CLSI MIC interpretation R (resistant),[8]; [9],22.8%
same,MIC50,[8],0.5 µg/mL
same,MIC90,[8],>64 µg/mL
NCC[C@H](O)C(=O)N[C@@H]1C[C@H](N)[C@@H](O[C@H]2O[C@H](CN)[C@@H](O)[C@H](O)[C@H]2O)[C@H](O)[C@H]1O[C@H]1O[C@H](CO)[C@@H](O)[C@H](N)[C@H]1O [Amikacin],CLSI MIC interpretation I (intermediate),[1]; [9],5.5%
same,CLSI MIC interpretation R (resistant),[1]; [9],65.5%
same,MIC50,[1]; read-out: MIC50,32 µg/mL
same,MIC90,[1]; read-out: MIC90,> 64 µg/mL
same,CLSI MIC interpretation I (intermediate),[2]; [10],6.3%
same,CLSI MIC interpretation R (resistant),[2]; [10],36.7%
same,CLSI MIC interpretation S (susceptible),[2]; [10],57%
same,MIC50,[2]; read-out: MIC50,4 µg/mL
same,MIC90,[2]; read-out: MIC90,> 64 µg/mL
same,CLSI MIC interpretation I (intermediate),[3]; [12],5.4%
same,CLSI MIC interpretation R (resistant),[3]; [12],52.7%
same,CLSI MIC interpretation S (susceptible),[3]; [12],41.9%
same,MIC50,"[3]; Enterobacterales with metallo-carbapenemases (74), cefiderocol 73 isolates, fixed concentration (μg/mL) in label, read-out: MIC50",16 µg/mL
same,MIC90,[3]; [19],> 64 µg/mL
same,CLSI MIC interpretation I (intermediate),96 P. aeruginosa; [14],7.3%
same,CLSI MIC interpretation R (resistant),96 P. aeruginosa; [14],29.2%
same,CLSI MIC interpretation S (susceptible),96 P. aeruginosa; [14],63.5%
same,MIC50,96 P. aeruginosa; [20],8 µg/mL
same,MIC90,96 P. aeruginosa; [21],> 64 µg/mL
same,CLSI MIC interpretation I (intermediate),[4]; [14],14.5%
same,CLSI MIC interpretation R (resistant),[4]; [14],56.4%
same,CLSI MIC interpretation S (susceptible),[4]; [14],29.1%
same,MIC50,[4]; read-out: MIC50,64 µg/mL
same,MIC90,[4]; read-out: MIC90,> 64 µg/mL
same,CLSI MIC interpretation (%) I,[5]; [16],11.1%
same,CLSI MIC interpretation I (intermediate),[5]; [22],9.3%
same,CLSI MIC interpretation R (resistant),[5]; [22],58.1%
same,CLSI MIC interpretation S (susceptible),[5]; [22],32.6%
same,CLSI MIC interpretation I (intermediate),[5]; [17],7.9%
same,CLSI MIC interpretation R (resistant),[5]; [17],36.8%
same,CLSI MIC interpretation S (susceptible),[5]; [17],55.3%
same,MIC50,[5]; [23],64 µg/mL
same,MIC90,[5]; [24],> 64 µg/mL
same,MIC50,[5]; [25],8 µg/mL
same,MIC90,[5]; [26],> 64 µg/mL
same,MIC50,[5]; [27],64 µg/mL
same,MIC90,[5]; [28],> 64 µg/mL
same,CLSI MIC interpretation (%) R,[5]; [16],55.6%
same,CLSI MIC interpretation (%) S,"[5]; S, susceptible, CLSI breakpoints, last subgroup of Table 2",33.3%
same,CLSI MIC interpretation I (intermediate),[6]; [9],10.3%
same,CLSI MIC interpretation R (resistant),[6]; [9],44.8%
same,CLSI MIC interpretation S (susceptible),[6]; [9],44.8%
same,MIC50,[6]; read-out: MIC50,8 µg/mL
same,MIC90,[6]; read-out: MIC90,64 µg/mL
same,CLSI MIC interpretation I (intermediate),[7]; [9],8.8%
same,CLSI MIC interpretation R (resistant),[7]; [9],37.5%
same,CLSI MIC interpretation S (susceptible),[7]; [9],53.8%
same,MIC50,[7]; read-out: MIC50,4 µg/mL
same,MIC90,[7]; read-out: MIC90,64 µg/mL
same,CLSI MIC interpretation I (intermediate),[8]; [9],7.9%
same,CLSI MIC interpretation R (resistant),[8]; [9],52%
same,CLSI MIC interpretation S (susceptible),[8]; [9],40.2%
same,MIC50,[8]; read-out: MIC50,16 µg/mL
same,MIC90,[8]; read-out: MIC90,> 64 µg/mL
O=C(O)c1cn(C2CC2)c2cc(N3CCNCC3)c(F)cc2c1=O [Ciprofloxacin],MIC90,[2]; read-out: MIC90,> 64 µg/mL
same,MIC90,[3]; [19],> 64 µg/mL
same,MIC50,96 P. aeruginosa; [20],16 µg/mL
same,MIC90,96 P. aeruginosa; [21],64 µg/mL
same,MIC90,[4]; read-out: MIC90,> 64 µg/mL
same,MIC50,[5]; [23],32 µg/mL
same,MIC90,[5]; [24],64 µg/mL
same,MIC50,[5]; [25],16 µg/mL
same,MIC90,[5]; [26],64 µg/mL
same,MIC50,[5]; [27],32 µg/mL
same,MIC90,[5]; [28],64 µg/mL
same,MIC50,[7]; read-out: MIC50,32 µg/mL
same,MIC90,[7]; read-out: MIC90,> 64 µg/mL
same,MIC90,[8]; read-out: MIC90,> 64 µg/mL
